In US9315464B1 (priority 2013, dated 2016):

Key:
[1] = test system: influenza A reporter assay system (viral UTR promoter / viral RNA-dependent RNA polymerase); assay type: cell-based, Influenza A virus (mouse B16-F10 melanoma cells)
[2] = test system: influenza A/Puerto Rico/8/34 virus; assay: Hemagglutination assay of influenza A replication in MDCK cells; assay type: cell-based; settings: 75 uM compound, influenza A/Puerto Rico/8/34 dilution series, FIG. 5A
[3] = test system: non-specific promoter (BAX promoter-driven luciferase) in HEK-293T cells; assay: irrelevant promoter-containing cell-based reporter assay (luciferase driven by the BAX promoter, control); settings: BAX promoter luciferase in HEK-293T cells, indicator of non-specific toxicity

O=C(Nc1ccc(S(=O)(=O)Nc2nccs2)cc1)c1cc(-c2ccccc2)nc2ccccc12 [A0259, 2-phenyl-N-{4-[(1,3-thiazol-2-yl)sulfamoyl]phenyl}quinoline-4-carboxamide]
inhibition of the influenza reporter system [1]: most dramatic inhibition | inhibition of influenza A viral replication in recipient cells (hemagglutination, settling cell buttons) [2]: viral dilutions below a thousand-fold from stock were inhibited from successfully replicating | impact on a non-specific promoter [3]: smallest impact
